Test results taken from ChEMBL document CHEMBL1201862, “PubChem BioAssay data set” (2004).
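Results reflect a 48-hour exposure of cells in 96-well plates to compound at five concentrations. The concentration for 50% growth inhibition is given as GI50.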 The source made the active and inactive calls. Rule as the data show it: active = GI50 up to about 1.1 µM and inactive = higher.

Tests used:
Assay in all cases: inhibition of tumour cell growth, NCI panel, 48 h
[1] = system: SK-MEL-5
[2] = system: NCI-H23
[3] = system: NCI-H460
[4] = system: HL-60
[5] = system: KM12
[6] = system: CAKI-1
[7] = system: HT-29
[8] = system: SF-268
[9] = system: OVCAR-5
[10] = system: M19-MEL
[11] = system: HCC 2998
[12] = system: SW-620
[13] = system: LXFL 529
[14] = system: HOP-62
[15] = system: SNB-75
[16] = system: M14
[17] = system: DMS-114
[18] = system: A498
[19] = system: SNB-19
[20] = system: SNB-78
[21] = system: U-251
[22] = system: SK-MEL-28
[23] = system: EKVX
[24] = system: Malme-3M
[25] = system: SK-OV-3
[26] = system: NCI-H522
[27] = system: NCI-H226
[28] = system: RPMI-8226
[29] = system: OVCAR-4
[30] = system: ACHN
[31] = system: SN12C
[32] = system: HOP-92
[33] = system: CCRF-CEM
[34] = system: 786-0
[35] = system: DLD-1
[36] = system: IGROV-1
[37] = system: SF-539
[38] = system: COLO 205
[39] = system: UACC-257
[40] = system: KM-20L2
[41] = system: XF498
[42] = system: UO-31
[43] = system: SK-MEL-2
[44] = system: A549
[45] = system: SF-295
[46] = system: OVCAR-8
[47] = system: MOLT-4
[48] = system: LOX IMVI
[49] = system: OVCAR-3
[50] = system: RXF 393
[51] = system: K562
[52] = system: TK-10
[53] = system: DMS-273
[54] = system: HCT-116
[55] = system: UACC-62
[56] = system: HOP-18
[57] = system: HCT-15
[58] = system: SR

CCOc1ccccc1NC(=O)C1=C(C)NC(C)=C(C(=O)Nc2ccccc2OCC)C1c1ccc(NC(C)=O)cc1
GI50 [1]: 40.7 µM (inactive)
GI50 [2]: 31 µM (inactive)
GI50 [3]: 35.7 µM (inactive)
GI50 [4]: 31.6 µM (inactive)
GI50 [5]: 24.8 µM (inactive)
GI50 [6]: 17.2 µM (inactive)
GI50 [7]: 40.6 µM (inactive)
GI50 [8]: 56.6 µM (inactive)
GI50 [9]: 33.6 µM (inactive)
GI50 [10]: 28.2 µM (inactive)
GI50 [11]: 12.3 µM (inactive)
GI50 [12]: 35.6 µM (inactive)
GI50 [13]: 47.6 µM (inactive)
GI50 [14]: 9.66 µM (inactive)
GI50 [15]: 9.75 µM (inactive)
GI50 [16]: 29.9 µM (inactive)
GI50 [17]: 40.2 µM (inactive)
GI50 [18]: 23.8 µM (inactive)
GI50 [19]: 96.2 µM (inactive)
GI50 [20]: 40.9 µM (inactive)
GI50 [21]: 46.2 µM (inactive)
GI50 [22]: 73.8 µM (inactive)
GI50 [23]: 38.6 µM (inactive)
GI50 [24]: 33.7 µM (inactive)
GI50 [25]: 11.5 µM (inactive)
GI50 [26]: 6.25 µM (inactive)
GI50 [27]: 27.7 µM (inactive)
GI50 [28]: 47.8 µM (inactive)
GI50 [29]: 43.8 µM (inactive)
GI50 [30]: 22.4 µM (inactive)
GI50 [31]: 30.2 µM (inactive)
GI50 [32]: 9.62 µM (inactive)
GI50 [33]: 61.4 µM (inactive)
GI50 [34]: 29.6 µM (inactive)
GI50 [35]: 37 µM (inactive)
GI50 [36]: 47.4 µM (inactive)
GI50 [37]: 41.7 µM (inactive)
GI50 [38]: 16.7 µM (inactive)
GI50 [39]: 23.6 µM (inactive)
GI50 [40]: 25.8 µM (inactive)
GI50 [41]: 9.68 µM (inactive)
GI50 [42]: 23.6 µM (inactive)
GI50 [43]: 17.9 µM (inactive)
GI50 [44]: 46.6 µM (inactive)
GI50 [45]: 13.2 µM (inactive)
GI50 [46]: 73.5 µM (inactive)
GI50 [47]: 32.1 µM (inactive)
GI50 [48]: 38.9 µM (inactive)
GI50 [49]: 45.3 µM (inactive)
GI50 [50]: 20.8 µM (inactive)
GI50 [51]: 37.1 µM (inactive)
GI50 [52]: 47.6 µM (inactive)

c1ccc(Nc2nnc(-c3nsc4ccccc34)o2)cc1
GI50 [1]: > 100 µM (inactive)
GI50 [2]: 91.4 µM (inactive)
GI50 [53]: 46.6 µM (inactive)
GI50 [3]: 62.1 µM (inactive)
GI50 [4]: > 100 µM (inactive)
GI50 [5]: > 100 µM (inactive)
GI50 [7]: > 100 µM (inactive)
GI50 [8]: > 100 µM (inactive)
GI50 [9]: > 100 µM (inactive)
GI50 [10]: > 100 µM (inactive)
GI50 [11]: > 100 µM (inactive)
GI50 [12]: > 100 µM (inactive)
GI50 [13]: 85.5 µM (inactive)
GI50 [14]: 32.9 µM (inactive)
GI50 [15]: 34.9 µM (inactive)
GI50 [16]: > 100 µM (inactive)
GI50 [17]: > 100 µM (inactive)
GI50 [54]: 74.1 µM (inactive)
GI50 [19]: 37.8 µM (inactive)
GI50 [20]: 89.5 µM (inactive)
GI50 [21]: 31.4 µM (inactive)
GI50 [55]: > 100 µM (inactive)
GI50 [22]: > 100 µM (inactive)
GI50 [23]: 51.3 µM (inactive)
GI50 [56]: > 100 µM (inactive)
GI50 [28]: > 100 µM (inactive)
GI50 [29]: 41 µM (inactive)
GI50 [30]: 75.3 µM (inactive)
GI50 [31]: 71.1 µM (inactive)
GI50 [32]: 19.2 µM (inactive)
GI50 [33]: 71.1 µM (inactive)
GI50 [57]: > 100 µM
GI50 [36]: > 100 µM (inactive)
GI50 [58]: > 100 µM (inactive)
GI50 [37]: > 100 µM (inactive)
GI50 [38]: > 100 µM (inactive)
GI50 [39]: > 100 µM (inactive)
GI50 [40]: > 100 µM (inactive)
GI50 [42]: > 100 µM (inactive)
GI50 [43]: > 100 µM (inactive)
GI50 [44]: > 100 µM (inactive)
GI50 [46]: 48.4 µM (inactive)
GI50 [47]: > 100 µM (inactive)
GI50 [48]: > 100 µM (inactive)
GI50 [49]: 14 µM (inactive)
GI50 [50]: 51.5 µM (inactive)
GI50 [51]: 59.6 µM (inactive)
GI50 [52]: > 100 µM (inactive)

CC(C)OP(=O)(OC(C)C)c1ncn(-c2ccc([N+](=O)[O-])cc2)n1
GI50 [1]: > 100 µM (inactive)
GI50 [2]: > 100 µM (inactive)
GI50 [53]: > 100 µM (inactive)
GI50 [3]: > 100 µM (inactive)
GI50 [4]: > 100 µM (inactive)
GI50 [5]: > 100 µM (inactive)
GI50 [6]: > 100 µM (inactive)
GI50 [7]: > 100 µM (inactive)
GI50 [8]: > 100 µM (inactive)
GI50 [9]: > 100 µM (inactive)
GI50 [10]: > 100 µM (inactive)
GI50 [11]: 86.7 µM (inactive)
GI50 [12]: > 100 µM (inactive)
GI50 [13]: > 100 µM (inactive)
GI50 [14]: > 100 µM (inactive)
GI50 [15]: 41.1 µM (inactive)
GI50 [16]: > 100 µM (inactive)
GI50 [17]: > 100 µM (inactive)
GI50 [54]: > 100 µM (inactive)
GI50 [18]: > 100 µM (inactive)
GI50 [19]: > 100 µM (inactive)
GI50 [21]: > 100 µM (inactive)
GI50 [55]: > 100 µM (inactive)
GI50 [22]: > 100 µM (inactive)
GI50 [23]: > 100 µM (inactive)
GI50 [24]: > 100 µM (inactive)
GI50 [25]: > 100 µM (inactive)
GI50 [26]: > 100 µM (inactive)
GI50 [27]: > 100 µM (inactive)
GI50 [28]: > 100 µM (inactive)
GI50 [29]: > 100 µM (inactive)
GI50 [30]: > 100 µM (inactive)
GI50 [31]: > 100 µM (inactive)
GI50 [32]: > 100 µM (inactive)
GI50 [33]: > 100 µM (inactive)
GI50 [35]: > 100 µM (inactive)
GI50 [57]: > 100 µM
GI50 [36]: > 100 µM (inactive)
GI50 [58]: > 100 µM (inactive)
GI50 [37]: > 100 µM (inactive)
GI50 [38]: > 100 µM (inactive)
GI50 [39]: > 100 µM (inactive)
GI50 [40]: > 100 µM (inactive)
GI50 [41]: > 100 µM (inactive)
GI50 [42]: > 100 µM (inactive)
GI50 [43]: > 100 µM (inactive)
GI50 [44]: > 100 µM (inactive)
GI50 [45]: > 100 µM (inactive)
GI50 [46]: > 100 µM (inactive)
GI50 [47]: > 100 µM (inactive)
GI50 [49]: > 100 µM (inactive)
GI50 [50]: > 100 µM (inactive)
GI50 [51]: > 100 µM (inactive)
GI50 [52]: > 100 µM (inactive)
